In patent publication US4518587A, “Dipeptides of L-5-hydroxytryptophan, processes for their preparation and drugs in which they are present” (S.A. Panmedica, priority 1983, dated 1985):
Like-named read-outs stand apart in the source and are kept apart here. Square brackets hold non-standard residues; d marks the D form. Peptide text beside a SMILES is read from it. Trp(5-OH) = N[C@@H](Cc1c[nH]c2ccc(O)cc12)C(=O)O

Test system: brain levels of L-5-hydroxytryptophan (L-5-HTP), serotonin (5-HT) and 5-hydroxyindoleacetic acid (5-HIAA)
Assay: Biochemical analysis of brain levels of L-5-HTP, 5-HT and 5-HIAA one hour after a single dose (technique of CURZON and GREEN)
Type: in vivo, rats
Details: for change in vivo at 10 mg/kg / change in vivo at 25 mg/kg / change in vivo at 50 mg/kg: Rattus norvegicus, 1 h; for change in vivo at 10 mg/kg: read-out: %, relative to the controls, of L-5-HTP at dose of 10 mg/kg
Procedure: Biochemical analysis of the brain levles of L-5-hydroxytryptophan (L-5-HTP), serotonin (5-HT) and its first metabolite, 5-hydroxyindoleacetic acid (5- HIAA), was carried out one hour after the administration of a single dose to adult rats by the technique of CURZON and GREEN. Three doses were studied, i.e. 10, 25 and 50 mg/kg, 10 animals being used per dose. Table I below indicates the percentage increases in 5-HTP, 5-HT and 5-HIAA relative to the levels found in the control animals: […]

[1] = brain level, adult rats, single dose 10 mg/kg, one hour after administration, percentage increase relative to control animals
[2] = brain level, adult rats, single dose 25 mg/kg, one hour after administration, percentage increase relative to control animals, read-out: %, relative to the controls, of 5-HIAA at dose of 25 mg/kg
[3] = brain level, adult rats, single dose 25 mg/kg, one hour after administration, percentage increase relative to control animals, read-out: %, relative to the controls, of L-5-HTP at dose of 25 mg/kg
[4] = brain level, adult rats, single dose 50 mg/kg, one hour after administration, percentage increase relative to control animals, read-out: %, relative to the controls, of 5-HIAA at dose of 50 mg/kg
[5] = brain level, adult rats, single dose 50 mg/kg, one hour after administration, percentage increase relative to control animals, read-out: %, relative to the controls, of 5-HT at dose of 50 mg/kg
[6] = brain level, adult rats, single dose 25 mg/kg, one hour after administration, percentage increase relative to control animals
[7] = brain level, adult rats, single dose 50 mg/kg, one hour after administration, percentage increase relative to control animals

Compound | %, relative to the controls, of 5-HIAA at dose of 10 mg/kg [1] [%] | %, relative to the controls, of 5-HT at dose of 10 mg/kg [1] [%] | %, relative to the controls, of 5-HT at dose of 25 mg/kg [6] [%] | %, relative to the controls, of L-5-HTP at dose of 10 mg/kg [1] [%] | %, relative to the controls, of 5-HIAA at dose of 25 mg/kg [6] [%] | %, relative to the controls, of 5-HIAA at dose of 50 mg/kg [7] [%] | %, relative to the controls, of L-5-HTP at dose of 50 mg/kg [7] [%] | %, relative to the controls, of 5-HT at dose of 50 mg/kg [7] [%] | also measured
N=C(N)NCCC[C@H](NC(=O)[C@@H](N)Cc1c[nH]c2ccc(O)cc12)C(=O)O [Example 18, 5-Hydroxy-L-tryptophyl-L-arginine] (H-[Trp(5-OH)]-Arg-OH) | 10 | 12 | 30 | – | – | – | – | – | change in vivo at 10 mg/kg [1]: 100%; change in vivo at 25 mg/kg [2]: 15%; change in vivo at 25 mg/kg [3]: 300%; change in vivo at 50 mg/kg [4]: 15%; change in vivo at 50 mg/kg [5]: 30%; change in vivo at 50 mg/kg (brain level, adult rats, single dose 50 mg/kg, one hour after administration, percentage increase relative to control animals, read-out: %, relative to the controls, of L-5-HTP at dose of 50 mg/kg): 500%
C[C@H](NC(=O)[C@@H](N)Cc1c[nH]c2ccc(O)cc12)C(=O)O.O [Example 8, 5-HYDROXY-L-TRYPTOPHYL-L-ALANINE HYDRATE] (H-[Trp(5-OH)]-Ala-OH) | 75 | – | 5 | – | – | – | – | – | change in vivo at 25 mg/kg (read-out: %, relative to the controls, of 5-HIAA at dose of 25 mg/kg): 140%; change in vivo at 50 mg/kg (read-out: %, relative to the controls, of 5-HIAA at dose of 50 mg/kg): 400%; change in vivo at 10 mg/kg: 200%
NC(=O)[C@@H](N)Cc1c[nH]c2ccc(O)cc12.O [Example 21, 5-HYDROXY-L-TRYPT[…]] | 30 | – | – | – | – | – | – | – | –
COC(=O)[C@H](Cc1c[nH]c2ccc(O)cc12)NC(=O)[C@H](Cc1c[nH]c2ccc(O)cc12)NC(C)=O [Example 7, METHYL ESTER OF N-ACETYL-5-HYDROXY-L-TRYPTOPHYL-5-HYDROXY-L-TRYPTOPHAN] (Ac-[Trp(5-OH)]-[Trp(5-OH)]-OMe) | 10 | – | – | 10 | 20 | 20 | 30 | – | –
5-Hydroxy-L-tryptophyl-γ-aminobutyric acid [Example 20] | 40 | 5 | 5 | 60 | 100 | 150 | 400 | 15 | %, relative to the controls, of L-5-HTP at dose of 25 mg/kg [6]: 200%
5-HYDROXY-L-TRYPTOPHAN-L-VALINE [Example 9] | 70 | 12 | 40 | 300 | 250 | 320 | 1700 | 45 | %, relative to the controls, of L-5-HTP at dose of 25 mg/kg [6]: 900%
COC(=O)[C@H](Cc1ccc(O)cc1)NC(=O)[C@H](Cc1c[nH]c2ccc(O)cc12)NC(C)=O [Example 6, Methyl ester of N-acetyl-5-hydroxy-L-tryptophyl-L-tyrosine] (Ac-[Trp(5-OH)]-Tyr-OMe) | – | – | 5 | – | – | – | – | 5 | –
N[C@@H](Cc1c[nH]c2ccc(O)cc12)C(=O)NCC(=O)O [Example 19, 5-HYDROXY-L-TRYPTOPHYLGLYCINE] (H-[Trp(5-OH)]-Gly-OH) | 75 | 30 | 12 | – | – | – | – | – | change in vivo at 25 mg/kg [2]: 170%; change in vivo at 25 mg/kg [3]: 700%; change in vivo at 50 mg/kg [4]: 350%; change in vivo at 50 mg/kg [5]: 30%
